Measurements from patent US20250195521A1 (Revolution Medicines, Inc., priority 2020, published 2025).
Where two headings read alike, the source gives them in different places.

Legend:
Type in all cases: cell-based, human
[1] = system: AsPC-1 (K-Ras G12D); assay: Potency assay: pERK
Summary of the method: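 Cells plated overnight, then exposed 4 h at 37 °C to 10-point 3-fold dilutions of compound, in duplicate. pERK read by AlphaLISA SureFire Ultra p-ERK1/2 lysate assay or by In-Cell Western (pERK antibody, DRAQ5 DNA normalisation). IC50 from 4-parameter sigmoidal fit of signal vs log concentration.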

[2] = system: NCI-H358 (K-Ras G12C); assay: CellTiter-Glo cell viability assay, H358
Experimental: (§1) Note—The following protocol describes a procedure for monitoring cell viability of K-Ras mutant cancer cell lines in response to a compound of the invention. Other RAS isoforms may be employed, though the number of cells to be seeded will vary based on cell line used.
(§2) Test compounds (132.5 nL) were directly dispensed into the assay plates containing cells. […] On day 5, assay plates and their contents were equilibrated to room temperature for approximately 30 minutes. […] Luminescence was measured using the PerkinElmer Enspire. Data were normalized by the following: (Sample signal/Avg. DMSO)*100. The data were fit using a four-parameter logistic fit.

[3] = system: AsPC-1 (K-Ras G12D); assay: CellTiter-Glo cell viability assay, AsPC-1; conditions: read-out: AsPC-1 Cell Viability IC50
Experimental: as §1, §2

[4] = Homo sapiens, ASPC1, read-out: pERK EC50
[5] = Homo sapiens, NCI-H358, 120 h, read-out: H358 Cell Viability IC50, K-Ras G12C, 5-day treatment

Compound	EC50 [1, 4] [nM]	IC50 [2, 5] [nM]	IC50 ([3]; Homo sapiens, ASPC1, 120 h) [nM]	EC50 ([1]; read-out: pERK EC50, AsPC-1 KRAS G12D) [nM]	IC50 ([2]; read-out: H358 Cell Viability IC50, K-Ras G12C, 5-day treatment) [nM]	IC50 ([3]; K-Ras G12D, 5-day treatment) [nM]
CCn1c(-c2cnccc2COC)c2c3cc(ccc31)-c1cc(O)cc(c1)C[C@H](NC(=O)[C@H](C(C)C)N(C)C(=O)CN(C)C(=O)[C@H]1CN1)C(=O)N1CCC[C@H](N1)C(=O)OCC(C)(C)C2 [Example 7, (2R)—N-(2-(((2S)-1-(((6^3S,4S)-1^1-ethyl-25-hydroxy-1^2-(4-(methoxymethyl)pyridin-3-yl)-10,10-dimethyl-5,7-dioxo-6^1,6^2,6^3,6^4,6^5,6^6-hexahydro-1^1H-8-oxa-1 (5,3)-indola-6 (1,3)-pyridazina-2 (1,3)-benzenacycloundecaphane-4-yl)amino)-3-methyl-1-oxobutan-2-yl) (methyl)amino)-2-oxoethyl)-N-methylaziridine-2-carboxamide]	< 5000	10 to 100	100 to 1000	–	–	–
CCn1c(-c2cnccc2COC)c2c3cc(ccc31)-c1cc(O)cc(c1)C[C@H](NC(=O)[C@H](C(C)C)N(C)C(=O)CN(C)C(=O)[C@H]1CN1Cc1ccccc1)C(=O)N1CCC[C@H](N1)C(=O)OCC(C)(C)C2 (some centres unmarked) [Example 9]	< 5000	10 to 100	1000 to 10000	–	–	–
CCn1c(-c2cnccc2COC)c2c3cc(ccc31)-c1cc(O)cc(c1)C[C@H](NC(=O)[C@H](C(C)C)N(C)C(=O)CN(C)C(=O)[C@@H]1CN1Cc1ccccc1)C(=O)N1CCC[C@H](N1)C(=O)OCC(C)(C)C2 (some centres unmarked) [Example 10]	< 5000	10 to 100	1000 to 10000	–	–	–
CCn1c(-c2cnccc2COC)c2c3cc(ccc31)-c1cc(O)cc(c1)C[C@H](NC(=O)[C@H](C(C)C)N(C)C(=O)CN(C)C(=O)C1CN1)C(=O)N1CCC[C@H](N1)C(=O)OCC(C)(C)C2 (some centres unmarked) [Example 33]	< 5000	10 to 100	–	–	–	–
CCn1c(-c2cnccc2COC)c2c3cc(ccc31)-c1cc(O)cc(c1)C[C@H](NC(=O)[C@H](C(C)C)N(C)C(=O)CN(C)C(=O)[C@@H]1N[C@@H]1C(=O)OC)C(=O)N1CCC[C@H](N1)C(=O)OCC(C)(C)C2 [Example 49, methyl (2S,3R)-3-((2-(((2S)-1-(((6^3S,4S)-1^1-ethyl-25-hydroxy-1^2-(4-(methoxymethyl)pyridin-3-yl)-10,10-dimethyl-5,7-dioxo-6^1,6^2,6^3,6^4,6^5,6^6-hexahydro-1^1H-8-oxa-1 (5,3)-indola-6 (1,3)-pyridazina-2 (1,3)-benzenacycloundecaphane-4-yl)amino)-3-methyl-1-oxobutan-2-yl) (methyl)amino)-2-oxoethyl) (methyl)carbamoyl) aziridine-2-carboxylate]	< 5000	1000 to 10000	1000 to 10000	–	–	–
CCn1c(-c2cccnc2[C@H](C)OC)c2c3cc(ccc31)-c1cc(O)cc(c1)C[C@H](NC(=O)[C@H](C(C)C)N(C)C(=O)CN(C)C(=O)[C@@H]1N[C@H]1COC)C(=O)N1CCC[C@H](N1)C(=O)OCC(C)(C)C2 [Example 85]	< 5000	10 to 100	1000 to 10000	–	–	–
CCn1c(-c2cccnc2[C@H](C)OC)c2c3cc(ccc31)-c1cc(O)cc(c1)C[C@H](NC(=O)[C@H](C(C)C)N(C)C(=O)CN(C)C(=O)C1CN1CCOC)C(=O)N1CCC[C@H](N1)C(=O)OCC(C)(C)C2 (some centres unmarked) [Example 90]	< 5000	< 10	100 to 1000	–	–	–
CCn1c(-c2cccnc2[C@H](C)OC)c2c3cc(ccc31)-c1cc(O)cc(c1)C[C@H](NC(=O)[C@H](C1CCCC1)N(C)C(=O)CN(C)C(=O)[C@H]1CN1)C(=O)N1CCC[C@H](N1)C(=O)OCC(C)(C)C2 [Example 95, (2R)—N-(2-(((1S)-1-cyclopentyl-2-(((6^3S,4S)-1^1-ethyl-25-hydroxy-1^2-(2-((S)-1-methoxyethyl)pyridin-3-yl)-10,10-dimethyl-5,7-dioxo-61,62,63,64,65,66-hexahydro-1^1H-8-oxa-1 (5,3)-indola-6 (1,3)-pyridazina-2 (1,3)-benzenacycloundecaphane-4-yl)amino)-2-oxoethyl) (methyl)amino)-2-oxoethyl)-N-methylaziridine-2-carboxamide]	< 5000	< 10	10 to 100	–	–	–
CCn1c(-c2cccnc2[C@H](C)OC)c2c3cc(ccc31)-c1cc(O)cc(c1)C[C@H](NC(=O)[C@H](C(C)C)N(C)C(=O)[C@H](C)N(C)C(=O)[C@H]1CN1)C(=O)N1CCC[C@H](N1)C(=O)OCC(C)(C)C2 [Example 102]	< 5000	10 to 100	100 to 1000	–	–	–
CCn1c(-c2cccnc2[C@H](C)OC)c2c3cc(ccc31)-c1cccc(c1)C[C@H](NC(=O)[C@H](C(C)C)N(C)C(=O)CN(C)C(=O)[C@H]1CN1)C(=O)N1CCC[C@H](N1)C(=O)OCC(C)(C)C2 [Example 107]	< 5000	100 to 1000	1000 to 10000	–	–	–
CCn1c(-c2cccnc2[C@H](C)OC)c2c3cc(ccc31)-c1cc(O)cc(c1)C[C@H](NC(=O)[C@H](C(C)C)N(C)C(=O)CN(C)C(=O)[C@@H]1N[C@@H]1C1CC1)C(=O)N1CCC[C@H](N1)C(=O)OCC(C)(C)C2 [Example 133, (2R,3R)-3-cyclopropyl-N-(2-(((2S)-1-(((6^3S,4S)-1^1-ethyl-25-hydroxy-1^2-(2-((S)-1-methoxyethyl)pyridin-3-yl)-10,10-dimethyl-5,7-dioxo-61,62,63,64,65,66-hexahydro-1^1H-8-oxa-1 (5,3)-indola-6 (1,3)-pyridazina-2 (1,3)-benzenacycloundecaphane-4-yl)amino)-3-methyl-1-oxobutan-2-yl) (methyl)amino)-2-oxoethyl)-N-methylaziridine-2-carboxamide]	< 5000	10 to 100	10 to 100	–	–	–
CCn1c(-c2cccnc2[C@H](C)OC)c2c3cc(ccc31)-c1cc(O)cc(c1)C[C@H](NC(=O)[C@H](C(C)C)N(C)C(=O)CN(C)C(=O)[C@H]1N[C@@H]1C1CC1)C(=O)N1CCC[C@H](N1)C(=O)OCC(C)(C)C2 [Example 135]	–	–	100 to 1000	< 5000	10 to 100	–
CCn1c(-c2cccnc2[C@H](C)OC)c2c3cc(ccc31)-c1cc(O)cc(c1)C[C@H](NC(=O)[C@H](C(C)C)N(C)C(=O)CN(C)C(=O)[C@H]1N[C@@H]1C1CC1)C(=O)N1CCC[C@H](N1)C(=O)OCC(C)(C)C2 [Example 136]	< 5000	< 10	–	–	–	100 to 1000
CCn1c(-c2cccnc2[C@H](C)OC)c2c3cc(ccc31)-c1cc(O)cc(c1)C[C@H](NC(=O)[C@H](C(C)C)N(C)C(=O)CN(C)C(=O)[C@@H]1CN1CCCOC)C(=O)N1CCC[C@H](N1)C(=O)OCC(C)(C)C2 (some centres unmarked) [Example 137]	< 5000	< 10	100 to 1000	–	–	–
CCn1c(-c2cccnc2[C@H](C)OC)c2c3cc(ccc31)-c1cc(O)cc(c1)C[C@H](NC(=O)[C@H](C(C)C)N(C)C(=O)CNC(=O)[C@@H]1N[C@@H]1C1CC1)C(=O)N1CCC[C@H](N1)C(=O)OCC(C)(C)C2 [Example 141]	< 5000	100 to 1000	100 to 1000	–	–	–
CCn1c(-c2cccnc2[C@H](C)OC)c2c3cc(ccc31)-c1cc(O)cc(c1)C[C@H](NC(=O)[C@H](C(C)C)N(C)C(=O)CN(C)C(=O)[C@H]1CN1C(C)C)C(=O)N1CCC[C@H](N1)C(=O)OCC(C)(C)C2 (some centres unmarked) [Example 142]	< 5000	< 10	100 to 1000	–	–	–
CCC(C)N(C)C(=O)c1cncc(-c2c3c4cc(ccc4n2CC)-c2cc(O)cc(c2)C[C@H](NC(=O)[C@H](C(C)C)N(C)C(=O)CN(C)C(=O)[C@H]2CN2)C(=O)N2CCC[C@H](N2)C(=O)OCC(C)(C)C3)c1 (some centres unmarked) [Example 144]	< 5000	10 to 100	100 to 1000	–	–	–
CCn1c(-c2cccnc2[C@H](C)OC)c2c3cc(ccc31)-c1cc(O)cc(c1)C[C@H](NC(=O)[C@H](C(C)C)N(C)C(=O)CN(C)C(=O)[C@H]1CN1CCCN1CCOC1=O)C(=O)N1CCC[C@H](N1)C(=O)OCC(C)(C)C2 (some centres unmarked) [Example 272]	< 5000	–	1000 to 10000	–	–	–
CCn1c(-c2cccnc2[C@H](C)OC)c2c3cc(ccc31)-c1cc(O)cc(c1)C[C@H](NC(=O)[C@H](C(C)C)N(C)C(=O)CN(C)C(=O)[C@H]1CN1C1COC1)C(=O)N1CCC[C@H](N1)C(=O)OCC(C)(C)C2 (some centres unmarked) [Example 275]	< 5000	–	1000 to 10000	–	–	–
CCn1c(-c2cccnc2[C@H](C)OC)c2c3cc(ccc31)-c1cc(O)cc(c1)C[C@H](NC(=O)[C@H](C(C)C)N(C)C(=O)CN(C)C(=O)[C@@H]1CN1CC1COC1)C(=O)N1CCC[C@H](N1)C(=O)OCC(C)(C)C2 (some centres unmarked) [Example 278]	< 5000	–	1000 to 10000	–	–	–
CCn1c(-c2cccnc2[C@H](C)OC)c2c3cc(ccc31)-c1cc(O)cc(c1)C[C@H](NC(=O)[C@H](C(C)C)N(C)C(=O)CN(C)C(=O)[C@@H]1N[C@@H]1C1COC1)C(=O)N1CCC[C@H](N1)C(=O)OCC(C)(C)C2 [Example 281]	< 5000	–	100 to 1000	–	–	–
CCn1c(-c2cccnc2[C@H](C)OC)c2c3cc(ccc31)-c1cc(O)cc(c1)C[C@H](NC(=O)[C@H](C(C)C)N(C)C(=O)CN(C)C(=O)[C@H]1N[C@H]1C1COC1)C(=O)N1CCC[C@H](N1)C(=O)OCC(C)(C)C2 [Example 282]	< 5000	–	1000 to 10000	–	–	–
CCn1c(-c2cccnc2[C@H](C)OC)c2c3cc(ccc31)-c1cc(O)cc(c1)C[C@H](NC(=O)[C@H](C(C)C)N(C)C(=O)CN(C)C(=O)[C@H]1N[C@@H]1C1COC1)C(=O)N1CCC[C@H](N1)C(=O)OCC(C)(C)C2 [Example 284]	< 5000	–	1000 to 10000	–	–	–
